From paper PMC11010885, “Functional Analysis and Tissue-Specific Expression of Calcitonin and CGRP with RAMP-Modulated Receptors CTR and CLR in Chickens” (Animals : an Open Access Journal from MDPI, 2024)
Entries after “also recorded” stand apart in the source; their conditions may differ.

Columns and labels:
Format in all cases: cell-based
[1] = tested on: chicken CTR + RAMP3; experiment: cAMP/PKA pGL3-CRE-luciferase reporter assay, CTR + RAMP3 in CHO cells; conditions: 10^−12 M to 10^−6 M, 6 h, mean ± SEM, n = 3, read-out: EC50, cAMP/PKA signaling pathway
Procedure: (§1) Chinese hamster ovary (CHO) cells were cultured in Dulbecco’s modified Eagle’s medium (DMEM) supplemented with 10% (vol/vol) fetal bovine serum (HyClone, Logan, UT, USA), 100 U/mL penicillin G and 100 μg/mL streptomycin. The cells were maintained in a 90 mm culture dish (Nunc, Rochester, NY, USA) and incubated at 37 °C with 5% CO2. To investigate the signaling pathways associated with each receptor in CHO cells, three different reporter systems (pGL3-CRE-luciferase, pGL4-SRE-luciferase, and pGL3-NFAT-RE-luciferase) were utilized to monitor intracellular cAMP/PKA and MAPK/ERK signaling pathways and calcium mobilization of the activated receptors, respectively.
(§2) Prior to the transfection procedure, the cells were initially cultured in 6-well plates (Nunc, Rochester, NY, USA), maintaining a seeding density of approximately 300,000 cells per well. Upon achieving approximately 70% confluence, the cells underwent a co-transfection process. […] The fluorescence activity of the luciferase in each treatment group was measured using a multimode microplate reader (TriStar LB941, Berthold Technologies, Bad Wildbad, Germany). Finally, the fluorescence activity of each treatment group was expressed as a relative increase ratio compared to the control group.

[2] = tested on: chicken CLR; experiment: cAMP/PKA pGL3-CRE-luciferase reporter assay, CLR + pcDNA in CHO cells; conditions: for EC50: CLR + pcDNA, CHO cells, pGL3-CRE-luciferase, 10^−12 M to 10^−6 M, 6 h, mean ± SEM, n = 3, read-out: EC50, cAMP/PKA signaling pathway; for activation (cAMP production), in words: independent CLR
Procedure: as §1
(§3) Prior to the transfection procedure, the cells were initially cultured in 6-well plates (Nunc, Rochester, NY, USA), maintaining a seeding density of approximately 300,000 cells per well. Upon achieving approximately 70% confluence, the cells underwent a co-transfection process. This procedure entailed the introduction of 700 ng of various luciferase reporter constructs (namely, pGL3-CRE-luciferase, pGL4-SRE-luciferase, or pGL3-NFAT-RE-luciferase) combined with 200 ng of a specific receptor plasmid (CTR or CLR) and 1000 ng of either RAMP1, RAMP2, RAMP3 expression plasmids, or alternatively, the empty pcDNA3.1 (+) vector. A volume of 5.7 μL of PEI MAX was used in 200 μL of buffer following the manufacturer’s protocol. After 24 h of incubation, the transfected CHO cells were subcultured in 96-well plates and passaged for an additional 24 h before peptide treatment. Then, the medium from the 96-well plates was removed, and the cells were treated with chicken CT/CGRP-containing medium (or untreated medium as a control) at concentrations ranging from 10^−12 M to 10^−6 M for 6 h. Subsequently, the cells were harvested for luciferase assays by lysing them in 1 × passive lysis buffer. To measure the luciferase activity of the cell lysate, 40 μL of luciferase assay reagent (Promega, Madison, WI, USA) was mixed with the cell lysate following the manufacturer’s instructions. The fluorescence activity of the luciferase in each treatment group was measured using a multimode microplate reader (TriStar LB941, Berthold Technologies, Bad Wildbad, Germany). Finally, the fluorescence activity of each treatment group was expressed as a relative increase ratio compared to the control group.

[3] = tested on: chicken CLR + RAMP1; experiment: cAMP/PKA pGL3-CRE-luciferase reporter assay, CLR + RAMP1 in CHO cells; conditions: for EC50: CLR + RAMP1, CHO cells, pGL3-CRE-luciferase, 10^−12 M to 10^−6 M, 6 h, mean ± SEM, n = 3, read-out: EC50, cAMP/PKA signaling pathway
Procedure: as §1
as §3, with “Subsequently, the cells were harvested for luciferase assays by lysing them in 1 × passive lysis buffer. To measure the luciferase activity of the cell lysate, 40 μL of luciferase assay reagent (Promega, Madison, WI, USA) was mixed with the cell lysate following the manufacturer’s instructions.” left out

[4] = tested on: chicken CLR + RAMP2; experiment: cAMP/PKA pGL3-CRE-luciferase reporter assay, CLR + RAMP2 in CHO cells; conditions: 10^−12 M to 10^−6 M, 6 h, mean ± SEM, n = 3, read-out: EC50, cAMP/PKA signaling pathway
Procedure: as §1, §2

[5] = tested on: chicken CLR + RAMP3; experiment: cAMP/PKA pGL3-CRE-luciferase reporter assay, CLR + RAMP3 in CHO cells; conditions: 10^−12 M to 10^−6 M, 6 h, mean ± SEM, n = 3, read-out: EC50, cAMP/PKA signaling pathway
Procedure: as §1, §2

[6] = tested on: chicken CTR; experiment: MAPK/ERK pGL4-SRE-luciferase reporter assay, CTR + pcDNA in CHO cells; conditions: 10^−12 M to 10^−6 M, 6 h, mean ± SEM, n = 3, read-out: EC50, MAPK/ERK signaling pathway
Procedure: as §1, §2

[7] = tested on: chicken CTR + RAMP1; experiment: MAPK/ERK pGL4-SRE-luciferase reporter assay, CTR + RAMP1 in CHO cells; conditions: 10^−12 M to 10^−6 M, 6 h, mean ± SEM, n = 3, read-out: EC50, MAPK/ERK signaling pathway
Procedure: as §1, §2

[8] = tested on: chicken CTR + RAMP2; experiment: MAPK/ERK pGL4-SRE-luciferase reporter assay, CTR + RAMP2 in CHO cells; conditions: 10^−12 M to 10^−6 M, 6 h, mean ± SEM, n = 3, read-out: EC50, MAPK/ERK signaling pathway
Procedure: as §1, §2

[9] = tested on: chicken CTR + RAMP3; experiment: MAPK/ERK pGL4-SRE-luciferase reporter assay, CTR + RAMP3 in CHO cells; conditions: 10^−12 M to 10^−6 M, 6 h, mean ± SEM, n = 3, read-out: EC50, MAPK/ERK signaling pathway
Procedure: as §1, §2

[10] = tested on: chicken CLR; experiment: MAPK/ERK pGL4-SRE-luciferase reporter assay, CLR + pcDNA in CHO cells; conditions: 10^−12 M to 10^−6 M, 6 h, mean ± SEM, n = 3, read-out: EC50, MAPK/ERK signaling pathway
Procedure: as §1, §2

[11] = tested on: chicken CTR; experiment: Calcium pGL3-NFAT-RE-luciferase reporter assay, CTR + pcDNA in CHO cells; conditions: 10^−12 M to 10^−6 M, 6 h, mean ± SEM, n = 3, read-out: EC50, calcium signaling pathway
Procedure: as §1, §2

[12] = tested on: chicken CTR + RAMP1; experiment: Calcium pGL3-NFAT-RE-luciferase reporter assay, CTR + RAMP1 in CHO cells; conditions: 10^−12 M to 10^−6 M, 6 h, mean ± SEM, n = 3, read-out: EC50, calcium signaling pathway
Procedure: as §1, §2

[13] = tested on: chicken CTR + RAMP2; experiment: Calcium pGL3-NFAT-RE-luciferase reporter assay, CTR + RAMP2 in CHO cells; conditions: for EC50: CTR + RAMP2, CHO cells, pGL3-NFAT-RE-luciferase, 10^−12 M to 10^−6 M, 6 h, mean ± SEM, n = 3, read-out: EC50, calcium signaling pathway
Procedure: as §1
as §3, with “Subsequently, the cells were harvested for luciferase assays by lysing them in 1 × passive lysis buffer. To measure the luciferase activity of the cell lysate, 40 μL of luciferase assay reagent (Promega, Madison, WI, USA) was mixed with the cell lysate following the manufacturer’s instructions.” left out

[14] = tested on: chicken CLR + RAMP1; experiment: Calcium pGL3-NFAT-RE-luciferase reporter assay, CLR + RAMP1 in CHO cells; conditions: 10^−12 M to 10^−6 M, 6 h, mean ± SEM, n = 3, read-out: EC50, calcium signaling pathway
Procedure: as §1, §2

[15] = tested on: chicken CLR + RAMP3; experiment: Calcium pGL3-NFAT-RE-luciferase reporter assay, CLR + RAMP3 in CHO cells; conditions: 10^−12 M to 10^−6 M, 6 h, mean ± SEM, n = 3, read-out: EC50, calcium signaling pathway
Procedure: as §1, §2

[16] = tested on: chicken CTR + RAMPs; experiment: Western blot CREB phosphorylation, CTR + RAMPs in CHO cells; conditions: 10 nM, 10 min, n = 3
Procedure: To assess whether the activation of chicken CTR and CLR, along with the presence of RAMPs, can augment the phosphorylation levels of cAMP response element-binding protein (CREB), 200 ng of CTR or CLR expression plasmids were combined with 1000 ng of chicken RAMPs or an empty pcDNA3.1 (+) vector in a 100 μL buffer. The resulting mixture was then transfected into CHO cells in a 12-well plate (Nunc, Rochester, NY, USA) using 3.6 μL of PEI MAX transfection reagent. After a 24 h incubation period, the cells were exposed to chicken CT (10 nM) or CGRP (10 nM) for 10 min. Subsequently, the culture medium was removed, and the cells were lysed according to the manufacturer’s instructions. Western blot analysis was performed to quantify the levels of CREB and phosphorylated CREB (p-CREB). The optical densities were analyzed and normalized using the software, ImageJ 1.52a (National Institutes of Health, Bethesda, MD, USA). The relative expression of p-CREB/CREB was determined by calculating the ratio of the optical density to that of the control without peptide treatment (0 min).

[17] = tested on: chicken CTR in the absence or presence of RAMPs; experiment: cAMP/PKA pGL3-CRE-luciferase reporter assay, CTR without and with RAMPs compared; conditions: for effect of RAMP co-expression on sensitivity of CTR: CHO cells, pGL3-CRE-luciferase
Procedure: as §1
as §3, with “Subsequently, the cells were harvested for luciferase assays by lysing them in 1 × passive lysis buffer. To measure the luciferase activity of the cell lysate, 40 μL of luciferase assay reagent (Promega, Madison, WI, USA) was mixed with the cell lysate following the manufacturer’s instructions.” left out

[18] = tested on: chicken CLR in the absence or presence of RAMPs; experiment: cAMP/PKA pGL3-CRE-luciferase reporter assay, CLR without and with RAMPs compared; conditions: for effect of RAMP co-expression on sensitivity of CLR: CHO cells, pGL3-CRE-luciferase
Procedure: as §1, §3

| Substance | EC50 [1] | EC50 [2] | activation (cAMP production), in words [2] | EC50 [3] | EC50 [4] | EC50 [5] | EC50 [6] | EC50 [7] | EC50 [8] | EC50 [9] | EC50 [10] | EC50 [11] | EC50 [12] | EC50 [13] | EC50 [14] | EC50 [15] | CREB phosphorylation (p-CREB/CREB vs. control, 0 min) [16] | effect of RAMP co-expression on sensitivity of CTR [17] | effect of RAMP co-expression on sensitivity of CLR [18] | rank order of receptor sensitivity ([18]; CLR without/with RAMPs) | further results |
| --- | --- | --- | --- | --- | --- | --- | --- | --- | --- | --- | --- | --- | --- | --- | --- | --- | --- | --- | --- | --- | --- |
| calcitonin [CT] | 0.44 ± 0.1 nM | 0.75 ± 0.21 nM | strongly activates | 3.3 ± 0.96 nM | 0.93 ± 0.15 nM | 1.27 ± 0.83 nM | 0.15 ± 0.05 nM | 1.38 ± 0.24 nM | 2.09 ± 0.42 nM | 0.38 ± 0.13 nM | 0.3 ± 0.12 nM | 61.1 ± 8.55 nM | > 100 nM | 2.5 ± 1.81 nM | 5.81 ± 5.75 nM | 32.3 ± 30.3 nM | significantly increased the CREB phosphorylation | does not markedly influence the sensitivity of chicken CTR for CT; also recorded: a slight decrease in sensitivity towards CT | a slight reduction in chicken CLR’s sensitivity to CT in the presence of RAMP1 | CLR ≈ CLR + RAMP2 ≈ CLR + RAMP3 > CLR + RAMP1 | elevation in luciferase activity, calcium signaling ([13]; CTR + RAMP2, pGL3-NFAT-RE-luciferase, CHO cells): modest elevation in luciferase activity; EC50 ([18]; CLR without/with RAMPs, read-out: EC50 range over CLR, CLR + RAMP2, CLR + RAMP3, CLR + RAMP1): 0.75 to 3.3 nM |
| calcitonin gene-related peptide [CGRP] | 0.24 ± 0.07 nM | > 100 nM | no effect on CLR | 0.26 ± 0.03 nM | 40.9 ± 6.76 nM | 1.84 ± 0.73 nM | 6.73 ± 1.78 nM | 0.41 ± 0.08 nM | 10.4 ± 1.12 nM | 0.67 ± 0.24 nM | > 100 nM | > 100 nM | > 100 nM | > 100 nM | 0.15 ± 0.11 nM | > 100 nM | significantly increased the CREB phosphorylation | co-expression of RAMP1 or RAMP3 significantly increased the sensitivity of CTR to CGRP | a significant increase in CLR’s sensitivity to CGRP with RAMP1 and RAMP3 co-expression; also recorded: RAMP2 co-expression led to a limited enhancement in sensitivity | CLR + RAMP1 > CLR + RAMP3 >> CLR + RAMP2 >> CLR | EC50 of CGRP relative to CT ([3]; CLR in the presence of RAMP1): approximately tenfold lower than CT; rank order of receptor sensitivity ([17]; CTR without/with RAMPs): CTR + RAMP1 ≈ CTR + RAMP3 > CTR + RAMP2 ≈ CTR |
